Patent US20250270223A1, “CRYSTAL OF SUBSTITUTED PIPERAZINE DERIVATIVE AND PREPARATION METHOD THEREFOR” (Kangbaida (Sichuan) Biotechnology Co., Ltd, priority 2022, published 2025)

Assays:
[1] = Stability study (lighting, high-temperature, high-humidity, acceleration, intermediate conditions, long-term tests); assay type: physicochemical; conditions: light 4,500 lx; 60° C.; 25° C. RH 92.5% and 72.5%; 40° C./75% RH; 30° C./65% RH; 25° C./60% RH
Source text: A proper amount of compound was weighed and placed in a suitable white transparent open container (such as a weighing bottle or petri dish), the container was placed in a lighting stability test chamber for drugs at an illumination of 4,500 lx±500 lx. The samples were taken for testing 5, 10, and 30 days after the placement.
A proper amount of compound was weighed and placed in a suitable open container (such as a weighing bottle or culture dish), the container was placed in an electric heated air-drying oven at 60° C. The samples were taken for testing 5, 10, and 30 days after the placement.
A proper amount of compound was weighed and placed in suitable open container (such as a weighing bottle or petri dish), the container was placed in a KNO3 saturated solution desiccator at a temperature of 25° C.±2° C. and a relative humidity of 92.5% and 72.5% respectively. The samples were taken for testing 5, 10, and 30 days after the placement.
After packaging an appropriate amount of the compound with inner packaging (pharmaceutical low-density polyethylene film, bag) and outer packaging (polyester/aluminum/polyethylene pharmaceutical composite film, bag), the compound was tested at a temperature of 40° C.±2° C. and a relative humidity of 75%±5%. […]

[2] = In vivo pharmacokinetic studies (plasma concentration of prototype drug by LC/MS/MS after gavage); conditions: ICR male mice fasted overnight, 1 mg/mL suspension in 5% DMSO+30% HP-β-CD, plasma 0-24 h
Method: A proper amount of compound was weighed and 1 mg/mL suspension was prepared using the weighed compound and 5% DMSO+30% HP-β-CD. After ICR male mice fasted overnight, they were administered by gavage and their blood was collected from the jugular venous plexus at different time points of 0, 5 min, 0.25 h, 0.5 h, 1 h, 2 h, 4 h, 8 h, and 24 h. After anticoagulation with EDTA-K2, plasma was separated by centrifugation, and the concentrations of prototype drug in plasma was determined by LC/MS/MS.

physical and chemical stability [1]: good physical and chemical stability | pharmacokinetic properties [2]: good pharmacokinetic properties
SMILES: C[C@@H](COCc1cc2n(n1)CCN(c1ncc(C(F)(F)F)cn1)C2)Nc1cn[nH]c(=O)c1C(F)(F)F [crystalline form A, (S)-4-(Trifluoromethyl)-5-((1-((5-(5-(trifluoromethyl)pyrimidin-2-yl)-4,5,6,7-tetrahydropyrazolo[1,5-a]pyrazin-2-yl)methoxy)propan-2-yl)amino)pyridazin-3(2H)-one]
